Assay results published in patent publication US12616656B2, “Adventitial painting modality of local drug delivery to abate intimal hyperplasia” (University of Virginia Patent Foundation, priority 2021, dated 2026).

Columns and labels:
IH in a rat model = conditions: perivascular administration; cited from earlier work
CD68 = experiment: Immunostaining of the inflammation marker CD68; assay type: in vivo, Sprague-Dawley rats
Protocol: (§1) Paraffin-embedded specimens were processed into 5-μm thick sections for immunostaining. The slides were deparaffinized and hydrated through series of xylenes and graded alcohol. Antigens were retrieved using citrate buffer for 2 hours at 80° C. in a high-pressure cooker. Endogenous peroxidase was blocked by incubation with 3% H2O2 for 10 min. Following application of a monoclonal antibody against either cleaved Caspase 3 (9661, Cell Signaling Technology, Inc., Danvers, MA) or CD68 (T-3003, BMA Biomedicls, Augst, Switzerland), ImmPRESS HRP Anti-Rabbit IgG (Peroxidase) Polymer Detection Kit (MP-7451, Vector Laboratories Inc., Burlingame, CA) was used as the secondary antibody. The staining intensity was visualized using ImmPACT DAB Peroxidase (HRP) Substrate (SK-4105, Vector Laboratories). Data values from 6 different portions were averaged for each animal, and averages from total animals in a group were used to calculate mean+SEM and statistical analysis.

[1] = system: active (cleaved) caspase-3; experiment: Immunostaining of the apoptosis marker active (cleaved) caspase-3; assay type: in vivo, Sprague-Dawley rats; conditions: Mode-3 painting, 14 days
Protocol: as §1

collagen = experiment: Masson's trichrome staining, collagen density in the artery; assay type: in vivo, Sprague-Dawley rats; conditions: Mode-1, 14 days
Protocol: Four to six cross-sections cut from different locations (see detailed description above) from the balloon-injured CCA per each animal were used for Masson's trichrome staining. The color images were transformed into monochrome images at an 8-bit scale using Image J. After adjusting the threshold consistent through the analysis, integrated density of interest was measured. Data values from 6 sections were averaged for each animal, and averages from total animals in a group were used to calculate mean+SEM and statistical analysis.

| Structure (SMILES) | IH (IH in a rat model) | number of CD68-positive cells (CD68; Mode-1 and Mode-2, 14 days) | inflammation marker (CD68 staining) (CD68; Mode-3 painting, 14 days) | apoptosis marker (caspase-3 positive cells) [1] | fibrosis (adventitial collagen accumulation) (collagen) |
| --- | --- | --- | --- | --- | --- |
| CC(C)N(C[C@H]1O[C@@H](n2cnc3c(N)ncnc32)[C@H](O)[C@@H]1O)[C@H]1C[C@@H](CCc2nc3cc(C(C)(C)C)ccc3[nH]2)C1 [Pinometostat, pinometostat] | reduced IH |  |  |  |  |
| CO[C@H]1C[C@@H]2CC[C@@H](C)[C@@](O)(O2)C(=O)C(=O)N2CCCC[C@H]2C(=O)O[C@H]([C@H](C)C[C@@H]2CC[C@@H](O)[C@H](OC)C2)CC(=O)[C@H](C)/C=C(\C)[C@@H](O)[C@@H](OC)C(=O)[C@H](C)C[C@H](C)/C=C/C=C/C=C/1C [Rapamycin] |  | the difference was abolished | reduced CD68 staining in the vessel wall | lowered the overall number of caspase-3 positive cells | alleviated this fibrotic severity |
